These results are taken from ChEMBL document CHEMBL3860026, “Depsidones from Lichens as Natural Product Inhibitors of M-Phase Phosphoprotein 1, a Human Kinesin Required for Cytokinesis” (J Nat Prod, 2016).

In data set [1] the target is T1, Kinesin-like protein KIF20B (Homo sapiens, UniProt Q96Q89). Nature of the data set: Inhibition of basal ATPase activity of N-terminal His6-tagged/SUMO-fused human MPP1 motor domain (2 to 477 residues) expressed in Escherichia coli BL21 CodonPlus by pyruvate kinase/lactate dehydrogenase-linked assay.
Data set [2] in a line: Solubility of the compound in phosphate buffered saline at pH 7.4 after 2 hrs by turbidimetric method. It counts as physicochemical.
The target in data set [3] is T1, Kinesin-like protein KIF20B. In words: Inhibition of basal ATPase activity of N-terminal His6-tagged/SUMO-fused human MPP1 motor domain (57 to 491 residues) expressed in Escherichia coli BL21 CodonPlus in presence of 0.1% Tween-20 by pyruvate kinase/lactate dehydrogenase-linked assay.
The nature of data set [4]: Efflux ratio of apparent permeability across basolateral to apical over apical to basolateral side in human Caco2 cells at 10 uM after 2 hrs by LC-MS/MS method. It counts as ADME, cell-based. The conditions noted are these: Caco-2.
The nature of data set [5]: Cytotoxicity against human J82 cells assessed as growth inhibition after 72 hrs by Alamar Blue assay. It counts as functional, cell-based. The conditions noted are these: J82, 72 h. In general terms: The colour change of resazurin is a common sign of viable cells or microbes.
A short description of data set [6]: Cytotoxicity against human UM-UC-3 cells assessed as growth inhibition after 72 hrs by Alamar Blue assay. The conditions noted are these: UMUC3, 72 h. It counts as functional, cell-based.
Data set [7] in a line: Half life in human liver microsomes at 3 uM by LC-MS/MS method. It counts as ADME. (Liver microsomes are a subcellular fraction often used to study metabolism.)
The target in data set [8] is T1, Kinesin-like protein KIF20B. In words: Inhibition of microtubule-stimulated ATPase activity of N-terminal His6-tagged/SUMO-fused human MPP1 motor domain (2 to 477 residues) expressed in Escherichia coli BL21 CodonPlus by pyruvate kinase/lactate dehydrogenase-linked assay.
The target is the same in data set [9]. In words: Inhibition of basal ATPase activity of N-terminal His6-tagged/SUMO-fused human MPP1 motor domain (57 to 491 residues) expressed in Escherichia coli BL21 CodonPlus by pyruvate kinase/lactate dehydrogenase-linked assay.
Data set [10] is described as follows: Half life in mouse liver microsomes at 3 uM by LC-MS/MS method. The format is ADME.
The nature of data set [11]: Passive permeability of the compound assessed as compound recovery at 10 uM after 5 hrs by PAMPA. Conditions: read-out: Drug recovery. The format is ADME. Background: In PAMPA a lipid-coated filter parts donor from acceptor wells.
A short description of data set [12]: Cytotoxicity against human K562 cells assessed as growth inhibition after 72 hrs by Alamar Blue assay. It counts as functional, cell-based. The conditions noted are these: K562, 72 h.
In data set [13] the target is T1, Kinesin-like protein KIF20B. In words: Inhibition of basal ATPase activity of N-terminal His6-tagged/SUMO-fused human MPP1 motor domain (2 to 477 residues) expressed in Escherichia coli BL21 CodonPlus in presence of 0.1% Tween-20 by pyruvate kinase/lactate dehydrogenase-linked assay.
Data set [14] in a line: Solubility of the compound in phosphate buffered saline at pH 2 after 2 hrs by turbidimetric method. It counts as physicochemical.
A short description of data set [15]: Cytotoxicity against human BxPC3 cells assessed as growth inhibition after 72 hrs by Alamar Blue assay. The format is functional, cell-based. Conditions: BXPC-3, 72 h.
Data set [16] in a line: Drug metabolism in human liver microsomes assessed as methyl 2,4-dihydroxy-6-pentanoylbenzoate formation at 3 uM in presence of NADPH after 5 to 45 mins by LC-MS/MS method. The format is ADME.
Data set [17] is described as follows: Solubility of the compound in phosphate buffered saline at pH 6 after 2 hrs by turbidimetric method. It counts as physicochemical.
Data set [18] can be described thus: Cytotoxicity against human HCT116 cells assessed as growth inhibition after 72 hrs by Alamar Blue assay. The format is functional, cell-based. The conditions noted are these: HCT-116, 72 h.
Data set [19] addresses T1, Kinesin-like protein KIF20B. Nature of the data set: Inhibition of microtubule-stimulated ATPase activity of N-terminal His6-tagged/SUMO-fused human MPP1 motor domain (57 to 491 residues) expressed in Escherichia coli BL21 CodonPlus by pyruvate kinase/lactate dehydrogenase-linked assay.
The nature of data set [20]: n-octanol-buffer distribution co-efficient, log D of the compound at pH 7.4 by shake flask method. It counts as physicochemical.
A short description of data set [21]: Drug metabolism in human liver microsomes assessed as 2-(2,4-dihydroxy-6-pentylphenoxy)-4-hydroxy-6-pentanoylbenzoic acid formation at 3 uM in presence of NADPH after 5 to 45 mins by LC-MS/MS method. It counts as ADME.
Data set [22] is described as follows: Drug metabolism in human liver microsomes assessed as 3,8-dihydroxy-6-(5-hydroxypentyl)-1-pentanoyl-11H-dibenzo[b,e][1,4]dioxepin-11-one formation at 3 uM in presence of NADPH after 5 to 45 mins by LC-MS/MS method. The format is ADME.
A short description of data set [23]: Apparent passive permeability of the compound at 10 uM after 5 hrs by PAMPA. It counts as ADME. The conditions noted are these: PAMPA.
A short description of data set [24]: Intrinsic clearance in human liver microsomes assessed per mg of protein at 3 uM after 5 to 60 mins by LC-MS/MS method. It counts as ADME. The conditions noted are these: read-out: CLH.
The nature of data set [25]: Intrinsic clearance in mouse liver microsomes assessed per mg of protein at 3 uM after 5 to 60 mins by LC-MS/MS method. The format is ADME. Conditions: read-out: CLH.
A short description of data set [26]: Drug level in human liver microsomes treated with norlobaridone at 3 uM in presence of NADPH after 5 to 45 mins by LC-MS/MS method. It counts as ADME.

≈ marks a conversion by molar mass, not a printed value. Calls of active or inactive are those of the source. The rule behind the calls is not given here.

T1 sequence (Q96Q89 whole entry, the tested form may be a part): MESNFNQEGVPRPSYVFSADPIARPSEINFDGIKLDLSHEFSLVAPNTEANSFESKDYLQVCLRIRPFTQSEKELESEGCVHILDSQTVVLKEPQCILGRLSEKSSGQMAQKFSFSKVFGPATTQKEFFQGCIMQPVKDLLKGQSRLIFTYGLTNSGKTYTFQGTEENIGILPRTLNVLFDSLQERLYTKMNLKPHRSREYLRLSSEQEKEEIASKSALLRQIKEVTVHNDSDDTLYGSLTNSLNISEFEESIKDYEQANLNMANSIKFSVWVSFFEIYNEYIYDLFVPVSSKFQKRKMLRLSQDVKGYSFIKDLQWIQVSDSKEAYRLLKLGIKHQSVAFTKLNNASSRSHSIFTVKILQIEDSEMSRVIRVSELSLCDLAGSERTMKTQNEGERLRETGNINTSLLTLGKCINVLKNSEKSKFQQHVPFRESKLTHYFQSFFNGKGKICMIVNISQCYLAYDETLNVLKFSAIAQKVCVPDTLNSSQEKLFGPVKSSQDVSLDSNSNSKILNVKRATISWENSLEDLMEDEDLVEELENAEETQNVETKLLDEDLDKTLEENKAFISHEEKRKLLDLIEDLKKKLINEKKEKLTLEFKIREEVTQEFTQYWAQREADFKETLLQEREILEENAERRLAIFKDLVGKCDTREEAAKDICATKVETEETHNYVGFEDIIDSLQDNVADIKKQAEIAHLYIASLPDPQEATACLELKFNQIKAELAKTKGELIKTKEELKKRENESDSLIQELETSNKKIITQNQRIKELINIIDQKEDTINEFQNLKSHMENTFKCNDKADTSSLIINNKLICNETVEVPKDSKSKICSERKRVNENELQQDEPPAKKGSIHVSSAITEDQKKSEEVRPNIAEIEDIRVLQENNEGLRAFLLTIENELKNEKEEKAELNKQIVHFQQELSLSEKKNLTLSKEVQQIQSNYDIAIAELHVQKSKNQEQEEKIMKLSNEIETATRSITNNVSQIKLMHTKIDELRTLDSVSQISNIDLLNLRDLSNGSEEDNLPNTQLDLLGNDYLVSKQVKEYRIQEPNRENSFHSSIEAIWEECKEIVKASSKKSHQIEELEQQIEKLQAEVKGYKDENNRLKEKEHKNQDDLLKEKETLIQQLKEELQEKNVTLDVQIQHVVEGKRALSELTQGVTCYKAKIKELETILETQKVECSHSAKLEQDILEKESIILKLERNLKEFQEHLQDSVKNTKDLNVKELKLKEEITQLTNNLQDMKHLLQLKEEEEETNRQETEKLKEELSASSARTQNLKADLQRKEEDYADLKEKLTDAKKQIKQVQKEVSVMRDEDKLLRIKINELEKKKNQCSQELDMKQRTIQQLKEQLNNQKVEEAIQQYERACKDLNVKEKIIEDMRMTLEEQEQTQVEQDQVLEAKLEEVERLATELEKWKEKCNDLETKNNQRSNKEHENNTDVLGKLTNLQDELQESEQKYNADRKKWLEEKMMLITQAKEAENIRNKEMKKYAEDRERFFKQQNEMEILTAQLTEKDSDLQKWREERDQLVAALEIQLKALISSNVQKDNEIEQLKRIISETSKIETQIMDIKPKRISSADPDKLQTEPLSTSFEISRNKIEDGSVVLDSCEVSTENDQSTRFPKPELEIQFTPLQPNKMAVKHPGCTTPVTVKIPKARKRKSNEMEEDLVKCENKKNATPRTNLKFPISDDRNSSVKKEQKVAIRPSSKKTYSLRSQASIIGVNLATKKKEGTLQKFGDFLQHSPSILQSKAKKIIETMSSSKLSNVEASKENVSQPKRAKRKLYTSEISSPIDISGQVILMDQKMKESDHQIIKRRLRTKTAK

As for `CCCCCc1cc(O)cc2c1Oc1cc(O)cc(C(=O)CCCC)c1C(=O)O2`, the IC50 (usually the point on the concentration scale where inhibition reaches its midpoint) in data set [1] was found to be 10.8 µM; in [8], 7.6 µM; in data set [9], 18.7 µM; in [19] it was 24.4 µM. The Imax is 80% in data set [1], 90% in [8], 75% in [9] and 90% in data set [19]. Also, the figures for the solubility (kinetic) at 2 h in data set [2], in data set [14] and in data set [17] were 37.5 µM (≈ 14.9 µg/mL), 6.5 µM (≈ 2.59 µg/mL) and 3.75 µM (≈ 1.49 µg/mL), respectively. For the same molecule, the inhibition result in [3] and in data set [13] was “Active” each time. In addition, in data set [4], the efflux ratio (commonly a quotient of directional permeabilities that is used to spot active efflux) at 2 h, 10 µM stood at 0.51. For the same molecule, the EC50 (as a rule, the concentration at which the effect is half-maximal) in data set [5] amounted to 48.3 µM; in data set [6] it was 30.5 µM; in data set [12], 43.7 µM; in data set [15], 33.1 µM; in [18], 42.9 µM. Moreover, the values for the half-life at 3 µM in [7] and in [10] were 3.5 min and 3.1 min, respectively. The recovery at 5 h, 10 µM in data set [11] came out at 95.1%. The Drug metabolism entry in data set [16], in data set [21] and in [22] was “Metabolite_Detected” in each case. In addition, in data set [20], the log distribution coefficient (logD) (usually lipophilicity at a set pH, counting ionised and neutral species) was determined as 3.5. Further, the Papp (in general, a coefficient for how fast a substance crosses the barrier) at 5 h, 10 µM in [23] was 32.4 ×10⁻⁶ cm/s. Moreover, the microsomal CLint at 3 µM in data set [24] was 393 µL/min/mg; in [25], 452 µL/min/mg.
Take `CCCCC(=O)c1cc(O)cc(O)c1C(=O)OC`: the Drug metabolism entry in [26] is reported as “Metabolite_Detected”.
As to `CCCCC(=O)c1cc(O)cc2c1C(=O)Oc1cc(O)cc(CCCCCO)c1O2`, the Drug metabolism entry in [26] is listed as “Metabolite_Detected”.
Take `CCCCCc1cc(O)cc(O)c1Oc1cc(O)cc(C(=O)CCCC)c1C(=O)O`: the Drug metabolism entry in data set [26] is on record as “Metabolite_Detected”.
As for `Cc1cc(O)cc2c1C(=O)Oc1cc3c(c(O)c1O2)C(=O)OC3` [VARIOLARIC ACID], the EC50 was above 50 µM in [5], above 100 µM in data set [6], above 100 µM in data set [12] and above 100 µM in [18].
Regarding `CCCCCc1c2c(cc(O)c1C(=O)O)OC(=O)c1c(cc(OC)cc1C(=O)CCCC)O2` [LOBARIC ACID], the EC50 worked out at 3.6 µM in data set [5]; 3.7 µM in [6]; 1.4 µM in [12]; 1.6 µM in data set [15]; 0.8 µM in [18].
